According to PMC10017709, “Structural basis of selective cannabinoid CB2 receptor activation” (Nature Communications, 2023):
Where “and” joins values, the source holds several entries; their conditions need not be identical. Equal entries are not always repeated.

Tests used:
CB1R I267ECL2L [1] = target: T1, CB1R I267ECL2L (Homo sapiens, UniProt P21554, I267L); test: [35S]GTPγS assay, CB1R I267L mutant; type: biochemical; conditions: CB1R I267L; 10 µM agonist
CB1R QuadrupleTM1,7 [2] = test: [35S]GTPγS assay, CB1R quadruple mutant; type: biochemical, human; conditions: CB1R Quadruple TM1,7; 10 µM agonist
CB1R-H270^ECL2L [3] = target: T2, CB1R-H270^ECL2L (Homo sapiens, UniProt P21554, H270L); test: [35S]GTPγS assay, CB1R H270L mutant; type: biochemical; conditions: CB1R H270L; 10 µM agonist
CB2R-H95^2.65A = CB2R-H95^2.65A (Homo sapiens, UniProt P34972, H95A); test: [35S]GTPγS assay, CB2R H95A mutant; type: biochemical
CB2R-Quadruple^TM1,7 = CB2R-Quadruple^TM1,7 (Homo sapiens, UniProt P34972, C40S/K279T/K33Q/V36I); test: [35S]GTPγS assay, CB2R quadruple mutant; type: biochemical
CB1R D266ECL2E [4] = target: T3, CB1R D266ECL2E (Homo sapiens, UniProt P21554, D266E); test: [35S]GTPγS assay, CB1R D266E mutant; type: biochemical; conditions: CB1R D266E; 10 µM agonist
T3 construct: The WT CB1R and CB2R genes were subcloned into vector pcDNA3.1; HA signal peptide (N); expressed in transfected cells; host or cells: HEK293T (transient, membrane homogenates)

CB2R-I110^3.29L = CB2R-I110^3.29L (Homo sapiens, UniProt P34972, I110L); test: [35S]GTPγS assay, CB2R I110L mutant; type: biochemical; conditions: for [35S]GTPγS binding: I1103.29L, individual replicates
CB2R-S285^7.39A = CB2R-S285^7.39A (Homo sapiens, UniProt P34972, S285A); test: [35S]GTPγS assay, CB2R S285A mutant; type: biochemical
CB1R QuadrupleTM1,7 [5] = target: T4, CB1R QuadrupleTM1,7 (Homo sapiens, UniProt P21554, I119V/Q116K/S123C/T377K); test: [3H]CP55,940 displacement assay, CB1R quadruple mutant; type: binding
T4 construct: The WT CB1R and CB2R genes were subcloned into vector pcDNA3.1; HA signal peptide (N); expressed in transfected cells; host or cells: HEK293T (transient, membrane homogenates)

CB1R-L359^6.51V = CB1R-L359^6.51V (Homo sapiens, UniProt P21554, L359V); test: [3H]CP55,940 displacement assay, CB1R L359V mutant; type: binding
CB2R-V261^6.51L = CB2R-V261^6.51L (Homo sapiens, UniProt P34972, V261L); test: [35S]GTPγS assay, CB2R V261L mutant; type: biochemical; conditions: for [35S]GTPγS binding: V2616.51L, individual replicates
CB1R I267ECL2L [6] = target: T1, CB1R I267ECL2L; test: [3H]CP55,940 displacement assay, CB1R I267L mutant; type: binding
CB2R-L182^ECL2I = CB2R-L182^ECL2I (Homo sapiens, UniProt P34972, L182I); test: [35S]GTPγS assay, CB2R L182I mutant; type: biochemical
CB1R-H270^ECL2L [7] = target: T2, CB1R-H270^ECL2L; test: [3H]CP55,940 displacement assay, CB1R H270L mutant; type: binding
hCB1R WT [8] = target: T5, hCB1R WT (Homo sapiens, UniProt P21554); test: [35S]GTPγS G protein activation assay, CB1R WT; type: biochemical; conditions: CB1R WT; 10 µM agonist
CB2R-I110^3.29A = CB2R-I110^3.29A (Homo sapiens, UniProt P34972, I110A); test: [35S]GTPγS assay, CB2R I110A mutant; type: biochemical; conditions: for [35S]GTPγS binding: I1103.29A, individual replicates
CB2R WT = CB2R WT (Homo sapiens, UniProt P34972); test: [35S]GTPγS G protein activation assay, CB2R WT; type: biochemical; conditions: for Emax: CB2R WT
CB2R-L185^ECL2H = CB2R-L185^ECL2H (Homo sapiens, UniProt P34972, L185H); test: [35S]GTPγS assay, CB2R L185H mutant; type: biochemical
CB2R-E181^ECL2D = CB2R-E181^ECL2D (Homo sapiens, UniProt P34972, E181D); test: [35S]GTPγS assay, CB2R E181D mutant; type: biochemical
hCB2R = target: T6, hCB2R (Homo sapiens, UniProt P34972); test: [3H]RO6957022 competition association assay; type: binding
T6 construct: host or cells: CHO-K1 (CHOK1_hCB2bgal, PathHunter), membranes

CB1R D266ECL2E [9] = target: T3, CB1R D266ECL2E; test: [3H]CP55,940 displacement assay, CB1R D266E mutant; type: binding
hCB1R WT [10] = target: T5, hCB1R WT; test: [3H]CP55,940 displacement assay, CB1R WT; type: binding
CB2R-F117^3.36A = CB2R-F117^3.36A (Homo sapiens, UniProt P34972, F117A); test: [35S]GTPγS assay, CB2R F117A mutant; type: biochemical
CB2R-F117^3.36A, sequence (P34972 whole entry F117A): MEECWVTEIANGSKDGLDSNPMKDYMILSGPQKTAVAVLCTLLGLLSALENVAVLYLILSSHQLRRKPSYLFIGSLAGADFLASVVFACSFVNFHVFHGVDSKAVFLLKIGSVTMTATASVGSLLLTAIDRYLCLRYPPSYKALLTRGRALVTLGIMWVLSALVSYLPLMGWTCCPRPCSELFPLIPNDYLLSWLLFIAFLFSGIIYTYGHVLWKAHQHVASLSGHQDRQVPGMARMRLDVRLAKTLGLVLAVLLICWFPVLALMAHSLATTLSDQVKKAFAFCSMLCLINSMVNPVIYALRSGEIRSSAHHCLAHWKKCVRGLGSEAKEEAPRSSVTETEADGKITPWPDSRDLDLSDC

CB2R WT, sequence (P34972 whole entry): as the sequence (P34972 whole entry F117A) above, with A117F counted along it
T4 sequence (P21554 whole entry Q116K/I119V/S123C/T377K): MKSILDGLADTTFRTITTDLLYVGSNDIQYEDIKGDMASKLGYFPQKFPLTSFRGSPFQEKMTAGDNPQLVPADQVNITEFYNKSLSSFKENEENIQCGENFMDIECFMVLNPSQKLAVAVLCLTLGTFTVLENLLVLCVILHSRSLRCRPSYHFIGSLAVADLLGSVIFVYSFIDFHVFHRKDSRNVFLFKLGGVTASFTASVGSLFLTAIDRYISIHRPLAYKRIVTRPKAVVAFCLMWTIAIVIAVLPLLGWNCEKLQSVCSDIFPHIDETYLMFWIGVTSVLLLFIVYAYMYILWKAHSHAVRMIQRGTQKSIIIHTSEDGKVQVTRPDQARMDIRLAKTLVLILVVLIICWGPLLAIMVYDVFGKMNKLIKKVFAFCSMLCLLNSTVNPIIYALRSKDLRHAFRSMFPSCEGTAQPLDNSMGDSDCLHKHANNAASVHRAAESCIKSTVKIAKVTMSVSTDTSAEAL
T1 sequence (P21554 whole entry I267L): as the sequence (P21554 whole entry Q116K/I119V/S123C/T377K) above, with K116Q, V119I, C123S, I267L, K377T counted along it
CB2R-V261^6.51L, sequence (P34972 whole entry V261L): as the sequence (P34972 whole entry F117A) above, with A117F, V261L counted along it
T5 sequence (P21554 whole entry): as the sequence (P21554 whole entry Q116K/I119V/S123C/T377K) above, with K116Q, V119I, C123S, K377T counted along it
T2 sequence (P21554 whole entry H270L): as the sequence (P21554 whole entry Q116K/I119V/S123C/T377K) above, with K116Q, V119I, C123S, H270L, K377T counted along it
CB1R-L359^6.51V, sequence (P21554 whole entry L359V): as the sequence (P21554 whole entry Q116K/I119V/S123C/T377K) above, with K116Q, V119I, C123S, L359V, K377T counted along it
CB2R-I110^3.29L, sequence (P34972 whole entry I110L): as the sequence (P34972 whole entry F117A) above, with I110L, A117F counted along it
CB2R-I110^3.29A, sequence (P34972 whole entry I110A): as the sequence (P34972 whole entry F117A) above, with I110A, A117F counted along it
CB2R-S285^7.39A, sequence (P34972 whole entry S285A): as the sequence (P34972 whole entry F117A) above, with A117F, S285A counted along it
T3 sequence (P21554 whole entry D266E): as the sequence (P21554 whole entry Q116K/I119V/S123C/T377K) above, with K116Q, V119I, C123S, D266E, K377T counted along it
T6 sequence (P34972 whole entry): as the sequence (P34972 whole entry F117A) above, with A117F counted along it
CB2R-Quadruple^TM1,7, sequence (P34972 whole entry K33Q/V36I/C40S/K279T): as the sequence (P34972 whole entry F117A) above, with K33Q, V36I, C40S, A117F, K279T counted along it
CB2R-L182^ECL2I, sequence (P34972 whole entry L182I): as the sequence (P34972 whole entry F117A) above, with A117F, L182I counted along it
CB2R-L185^ECL2H, sequence (P34972 whole entry L185H): as the sequence (P34972 whole entry F117A) above, with A117F, L185H counted along it
CB2R-E181^ECL2D, sequence (P34972 whole entry E181D): as the sequence (P34972 whole entry F117A) above, with A117F, E181D counted along it
CB2R-H95^2.65A, sequence (P34972 whole entry H95A): as the sequence (P34972 whole entry F117A) above, with H95A, A117F counted along it

SMILES: CCCCCCC(C)(C)c1cc(OC)c([C@@H]2C=C(CO)[C@@H]3C[C@H]2C3(C)C)c(OC)c1 [HU308]
- Agonist-mediated activation (CB1R I267ECL2L [1]): 0.8 ± 0.0 fold over its basal
- Agonist-mediated activation (CB1R QuadrupleTM1,7 [2]): 0.9 ± 0.0 fold over its basal
- Agonist-mediated activation (CB1R-H270^ECL2L [3]): 1.2 ± 0.1 fold over its basal
- Emax (CB2R-H95^2.65A): 67 ± 16%
- Emax (CB2R-Quadruple^TM1,7): 1 ± 9%
- activation of CB2R-Quadruple^TM1,7 (CB2R-Quadruple^TM1,7): completely lost their ability to activate
- Agonist-mediated activation (CB1R D266ECL2E [4]): 0.8 ± 0.1 fold over its basal
- Emax (CB2R-I110^3.29L): 122 ± 12%
- [35S]GTPγS binding (CB2R-I110^3.29L; log [ligand] (M) -5): 144.00 percentage of WT and 101.90 percentage of WT and 119.46 percentage of WT
- [35S]GTPγS binding (CB2R-I110^3.29L; log [ligand] (M) -6): 62.70 percentage of WT and 56.80 percentage of WT and 71.03 percentage of WT
- [35S]GTPγS binding (CB2R-I110^3.29L; log [ligand] (M) -7): 34.90 percentage of WT and 47.80 percentage of WT and 66.79 percentage of WT
- [35S]GTPγS binding (CB2R-I110^3.29L; log [ligand] (M) -8): 0.30 percentage of WT and -7.00 percentage of WT and 4.82 percentage of WT
- [35S]GTPγS binding (CB2R-I110^3.29L; log [ligand] (M) -9): -41.10 percentage of WT and -11.80 percentage of WT and -14.01 percentage of WT
- [35S]GTPγS binding (CB2R-I110^3.29L; log [ligand] (M) -10): -13.40 percentage of WT and -17.60 percentage of WT and 8.27 percentage of WT
- Emax (CB2R-S285^7.39A): 65 ± 18%
- loss in potency compared to WT (CB2R-S285^7.39A; S285A mutant vs WT, [35S]GTPγS): 15 fold
- Emax (%) (CB2R-S285^7.39A; S285A mutant, at 10 µM compared to WT): unaffected
- Displacement (%) of [3H]CP55,940 (CB1R QuadrupleTM1,7 [5]): -13 ± 22%
- percentage specific [3H]CP55,940 binding (CB1R QuadrupleTM1,7 [5]): 134.56 percentage and 68.97 percentage and 134.64 percentage
- percentage specific [3H]CP55,940 binding (CB1R-L359^6.51V): 49.24 percentage and 48.12 percentage and 78.61 percentage
- Emax (CB2R-V261^6.51L): 26 ± 7%
- drop in potency compared to WT (CB2R-V261^6.51L; V261L mutant vs WT, [35S]GTPγS): more than 120 fold
- [35S]GTPγS binding (CB2R-V261^6.51L; log [ligand] (M) -5): 38.70 percentage of WT and 22.83 percentage of WT and 16.52 percentage of WT
- [35S]GTPγS binding (CB2R-V261^6.51L; log [ligand] (M) -6): 9.87 percentage of WT and 8.25 percentage of WT and -4.25 percentage of WT
- [35S]GTPγS binding (CB2R-V261^6.51L; log [ligand] (M) -7): 4.21 percentage of WT and 12.98 percentage of WT and 17.88 percentage of WT
- [35S]GTPγS binding (CB2R-V261^6.51L; log [ligand] (M) -8): 19.13 percentage of WT and 1.74 percentage of WT and -11.50 percentage of WT
- [35S]GTPγS binding (CB2R-V261^6.51L; log [ligand] (M) -9): 9.08 percentage of WT and 5.95 percentage of WT and 6.43 percentage of WT
- [35S]GTPγS binding (CB2R-V261^6.51L; log [ligand] (M) -10): 7.31 percentage of WT and 13.50 percentage of WT and 10.09 percentage of WT
- Displacement (%) of [3H]CP55,940 (CB1R I267ECL2L [6]): -7 ± 19%
- percentage specific [3H]CP55,940 binding (CB1R I267ECL2L [6]): 143.22 percentage and 82.61 percentage and 94.20 percentage
- Emax (CB2R-L182^ECL2I): 10 ± 7%
- Displacement (%) of [3H]CP55,940 (CB1R-H270^ECL2L [7]): 46 ± 3%
- percentage specific [3H]CP55,940 binding (CB1R-H270^ECL2L [7]): 48.81 percentage and 55.24 percentage and 57.51 percentage
- Agonist-mediated activation (hCB1R WT [8]): 0.8 ± 0.0 fold over its basal
- Emax (CB2R-I110^3.29A): 27 ± 10%
- [35S]GTPγS binding (CB2R-I110^3.29A; log [ligand] (M) -5): 7.61 percentage of WT and 53.50 percentage of WT and 22.50 percentage of WT and 24.96 percentage of WT
- [35S]GTPγS binding (CB2R-I110^3.29A; log [ligand] (M) -6): -2.63 percentage of WT and 15.83 percentage of WT and -2.10 percentage of WT and 11.35 percentage of WT
- [35S]GTPγS binding (CB2R-I110^3.29A; log [ligand] (M) -7): -21.19 percentage of WT and 26.20 percentage of WT and -0.60 percentage of WT and -1.65 percentage of WT
- [35S]GTPγS binding (CB2R-I110^3.29A; log [ligand] (M) -8): -20.10 percentage of WT and 21.60 percentage of WT and -13.80 percentage of WT and -17.12 percentage of WT
- [35S]GTPγS binding (CB2R-I110^3.29A; log [ligand] (M) -9): -21.53 percentage of WT and -16.40 percentage of WT and -20.30 percentage of WT and -26.64 percentage of WT
- [35S]GTPγS binding (CB2R-I110^3.29A; log [ligand] (M) -10): -16.86 percentage of WT and 2.60 percentage of WT and -15.20 percentage of WT and -22.40 percentage of WT
- Emax (CB2R WT; maximum effect at 10 µM compared to WT (Suppl. Table 6)): 105 ± 3%
- Emax (CB2R WT; maximum effect compared to CP55,940): 91 ± 8%
- [35S]GTPγS binding, percentage of WT (CB2R WT; WT, log [ligand] (M) -10, individual replicates): 12.69 percentage of WT and 0.12 percentage of WT and -18.99 percentage of WT and 12.94 percentage of WT and 1.90 percentage of WT and -10.30 percentage of WT and -18.00 percentage of WT and 0.09 percentage of WT and 9.81 percentage of WT and 3.21 percentage of WT
- [35S]GTPγS binding, percentage of CP55,940 (CB2R WT; log [agonist] (M) -5, individual replicates): 84.84% and 81.20% and 107.18%
- [35S]GTPγS binding, percentage of CP55,940 (CB2R WT; log [agonist] (M) -6, individual replicates): 42.88% and 70.07% and 64.55%
- [35S]GTPγS binding, percentage of CP55,940 (CB2R WT; log [agonist] (M) -7, individual replicates): 59.80% and 30.89% and 31.02%
- [35S]GTPγS binding, percentage of CP55,940 (CB2R WT; log [agonist] (M) -8, individual replicates): 26.43% and 5.08% and 10.60%
- [35S]GTPγS binding, percentage of CP55,940 (CB2R WT; log [agonist] (M) -9, individual replicates): -10.38% and -5.63% and -15.53%
- [35S]GTPγS binding, percentage of CP55,940 (CB2R WT; log [agonist] (M) -10, individual replicates): 1.23% and -8.38% and 14.06%
- Emax (CB2R-L185^ECL2H): 146 ± 8%
- Emax (CB2R-E181^ECL2D): 32 ± 3%
- ET (engagement time) (hCB2R): 143 s and 143 ± 47.9 s
- Displacement (%) of [3H]CP55,940 (CB1R D266ECL2E [9]): 34 ± 5%
- percentage specific [3H]CP55,940 binding (CB1R D266ECL2E [9]): 73.61 percentage and 56.25 percentage and 67.45 percentage
- Displacement (%) of [3H]CP55,940 (hCB1R WT [10]): 6 ± 7%
- percentage specific [3H]CP55,940 binding (hCB1R WT [10]): 78.66 percentage and 99.84 percentage and 102.02 percentage
- Emax (CB2R-F117^3.36A): 5 ± 11%
- [35S]GTPγS binding (CB2R-F117^3.36A; F1173.36A, log [ligand] (M) -5, individual replicates): -12.18 percentage of WT and 25.21 percentage of WT and 1.54 percentage of WT
